According to patent EP0845210A1, “New herbicidal compositions” (RHONE-POULENC AGRICULTURE LTD., priority 1994, dated 1996):

Tests used:
Type in all cases: in vivo
Abutilon theophrasti [1] = assay: Procedure B: pre-emergence field trial (research farm in Brazil), visual assessment 36 or 40 days from sowing
Protocol: (§1) The experiments were carried out pre-emergence of the weed species at • (i) a research farm in Brazil with Compounds B and C (each formulated as a wettable powder) and metolachlor, (formulated as a suspension concentrate); and • (ii) in research farms in the Mid West corn belt of the United States with compound D (formulated as a wettable powder) and metolachlor (formulated as a suspension concentrate).
(§2) A solution of the two active ingredients (a.i.) was mixed for one hour and applied at a spray volume of 231 litres/hectare to a 3 metre by 5 metre test plot comprising the weed species which were sown 2 days earlier. 3 replicates were performed. A control plot was sprayed with a solution not containing test compound. Visual assessment of phytotoxicity was made after 36 or 40 days from sowing each weed species based on a comparison with the control plot.
(§3) The tables below show the observed percentage control of the weed species by each combination, with the figure in brackets representing the predicted value using the Limpel formula. The dose rates are in grammes per hectare. Table E1

Amaranthus retroflexus [2] = assay: Procedure B: pre-emergence field trial (Mid West corn belt research farms), visual assessment 36 or 40 days from sowing
Protocol: as §1, §2, §3

Setaria faberii = assay: as above
Protocol: as §1, §2, §3

maize (Zea mays) = assay: Procedure D: pre-emergence field trial (Volga, Brookings), crop phytotoxicity about 26 days after treatment
Protocol: (§4) The following experiments were carried out pre-emergence of the weed species. Compound A, formulated as a wettable dispersible granule as described in Example 1 herebelow (750g per kilogram) and each acetochlor (used as the commercially available formulation "Harness" (trade mark), an emulsifiable concentrate containing 960g of acetochlor per kilogram, and which also contains the safening agent flurazole, metolachlor (used as the commercially available formulation "Duelor" (trade mark), an emulsifiable concentrate emulsifiable concentrate containing 960g of metolachlor per kilogram), alachlor (used as the commercially available formulation "Lasso" (trade mark), an emulsifiable concentrate containing 480g of alachlor per kilogram) and dimethenamid (used as the commercially available formulation "Frontiere" (trade mark), a flowable containing 900g/l active ingerident) were dissolved in water and sprayed at a volume rate of 187 litres/hectare on various test plots (10 square meters in area) either alone or in mixtures. The soil was a clay-loam, with a pH of 7, the experiments being conducted in June in Volga, Brookings, U.S.A. The various weed and crop species were drill sown and the various compositions were applied on the same day after drilling. Three replicates were performed and the efficacy of the various mixtures were determined by visual assessment of the percentage phytotoxicity in comparison with an untreated control. Assessment was made about 26 days after treatment. In the Tables which follow the dose is expressed in grammes per hectare and the figures in brackets represent the expected results according to the Colby formula.

Panicum miliaceum = assay: Procedure D: pre-emergence field trial (Volga, Brookings), visual assessment about 26 days after treatment
Protocol: as §4

Helianthus annuus = assay: as above
Protocol: as §4

Abutilon theophrasti [3] = assay: as above
Protocol: as §4

Digitaria sanguinalis = assay: Procedure A: pre-emergence glasshouse pot test, growth reduction assessed two weeks after treatment
Text: (§5) Seed of the various species of broad-leaf or grass weeds were sown in unsterilised clay loam soil in 7 centimetre by 7 centimetre plastic plant pots. The pots were watered and allowed to drain. The soil surface was then sprayed with ranges of concentrations of either the individual herbicide or mixtures of two herbicides in various proportions, dissolved in a 50:50 by volume solution of acetone and water, using a track sprayer set to deliver the equivalent of 290 l/ha. All herbicides were used as unformulated technical materials except dimethenamid, which was used as the commercial formulation "Frontiere" (trade mark), a flowable containing 900g/l active ingredient; and alachlor, which was used as "Lasso" (trade mark), an emulsifiable concentrate formulation containing 480g/l active ingredient.
(§6) Treated pots were placed at random in four replicate blocks per treatment for each plant species. The pots were held, in a glasshouse, standing on moist capillary matting, under lights and with overhead watering twice daily.
(§7) Two weeks after treatment the percent reduction in plant growth, compared to an untreated control, was assessed.
(§8) Mean percent reduction in plant growth was calculated for each treatment. Dose/mean response was plotted on Log concentration/Probability graph paper, and lines fitted by eye. For herbicide mixtures a dose/response line for the first herbicide was drawn for each dose rate of the second herbicide and a dose/response line for the second herbicide was drawn for each dose rate of the first herbicide. The doses representing a 90% reduction in plant growth (LD90's) were read from these lines and plotted on graphs whose axes were dose rates of the two herbicides. The line joining these points is an Isobole i.e. a line joining points (mixtures) of equal activity, as described by P.M.L. Tammes, Neth. J. Plant Path. 70 (1964) : 73-80. A line was also drawn joining the LD90's of the individual components of the mixture. This line represents the theoretical isobole if the effect of the two components is additive i.e. there is no interaction between them. Isoboles falling below this line indicate synergy between the components while lines lying above it indicate antagonism.
(§9) In the tables that follow 'dose' represents the dose rate in grammes per hectare of the active ingredient used; and the figures for the weed control are percentages reduction in growth when compared with the untreated controls.

Echinochloa crus-galli = assay: as above
Text: as §5, §6, §7, §8, §9

Amaranthus retroflexus [4] = assay: as above
Text: as §5, §6, §7, §8, §9

Setaria viridis = assay: as above
Text: as §5, §6, §7, §8, §9

[5] = D 37.5 g/ha alone, 1st Research Farm
[6] = D 37.5 g/ha alone, 2nd Research Farm
[7] = D 37.5 g/ha alone, 3rd Research Farm
[8] = metolachlor 480 g/ha alone, 1st Research Farm
[9] = metolachlor 480 g/ha alone, 2nd Research Farm
[10] = metolachlor 480 g/ha alone, 3rd Research Farm
[11] = acetochlor 480 g/ha alone (Harness, contains safener flurazole)

## CS(=O)(=O)c1ccc(C(=O)c2cnoc2C2CC2)c(C(F)(F)F)c1 [Compound B, 5-cyclopropyl-4-(4-methylsulphonyl-2-trifluoromethyl)benzoylisoxazole]
Abutilon theophrasti [1]; B 50 g/ha alone
  observed percentage control of the weed species: 75%

## CS(=O)(=O)c1cc(Cl)ccc1C(=O)c1cnoc1C1CC1 [Compound D, 4-(4-chlor-2-methylsulphonyl)benzoyl-5-cyclopropylisoxazole]
Amaranthus retroflexus [2]; [5]
  observed percentage control of the weed species: 38%
Amaranthus retroflexus [2]; [6]
  observed percentage control of the weed species: 10%
Amaranthus retroflexus [2]; [7]
  observed percentage control of the weed species: 10%
Setaria faberii; [5]
  observed percentage control of the weed species: 22%
Setaria faberii; [6]
  observed percentage control of the weed species: 62%
Setaria faberii; [7]
  observed percentage control of the weed species: 32%

## CCc1cccc(CC)c1N(COC)C(=O)CCl [Alachlor, 2-chloro-2',6'-diethyl-N-methoxymethylacetanilide, reference compound]
Maize (Zea mays); alachlor 480 g/ha alone
  percentage phytotoxicity: 0%
Panicum miliaceum; alachlor 480 g/ha alone
  percentage phytotoxicity: 53%
Helianthus annuus; alachlor 480 g/ha alone
  percentage phytotoxicity: 3%
Abutilon theophrasti [3]; alachlor 480 g/ha alone
  percentage phytotoxicity: 20%
Digitaria sanguinalis; alachlor 4 g/ha alone
  percent reduction in plant growth: 0%
Digitaria sanguinalis; alachlor 8 g/ha alone
  percent reduction in plant growth: 25%
Digitaria sanguinalis; alachlor 16 g/ha alone
  percent reduction in plant growth: 6.25%
Digitaria sanguinalis; alachlor 32 g/ha alone
  percent reduction in plant growth: 37.5%
Digitaria sanguinalis; alachlor 64 g/ha alone
  percent reduction in plant growth: 75%
Digitaria sanguinalis; alachlor 128 g/ha alone
  percent reduction in plant growth: 95%
Echinochloa crus-galli; alachlor 4 g/ha alone
  percent reduction in plant growth: 18.75%
Echinochloa crus-galli; alachlor 8 g/ha alone
  percent reduction in plant growth: 5%
Echinochloa crus-galli; alachlor 16 g/ha alone
  percent reduction in plant growth: 12.5%
Echinochloa crus-galli; alachlor 32 g/ha alone
  percent reduction in plant growth: 46.25%
Echinochloa crus-galli; alachlor 64 g/ha alone
  percent reduction in plant growth: 91.25%
Echinochloa crus-galli; alachlor 128 g/ha alone
  percent reduction in plant growth: 98.75%

## CCc1cccc(C)c1N(C(=O)CCl)C(C)COC (stereo not drawn) [Metolachlor, 2-chloro-6'-ethyl-N-(2-methoxy-1-methylethyl)acet-o-toluidide, reference compound]
Maize (Zea mays); metolachlor 480 g/ha alone
  percentage phytotoxicity: 0%
Panicum miliaceum; metolachlor 480 g/ha alone
  percentage phytotoxicity: 52%
Helianthus annuus; metolachlor 480 g/ha alone
  percentage phytotoxicity: 3%
Abutilon theophrasti [3]; metolachlor 480 g/ha alone
  percentage phytotoxicity: 10%
Amaranthus retroflexus [2]; [8]
  observed percentage control of the weed species: 38%
Amaranthus retroflexus [2]; [9]
  observed percentage control of the weed species: 78%
Amaranthus retroflexus [2]; [10]
  observed percentage control of the weed species: 91%
Setaria faberii; [8]
  observed percentage control of the weed species: 91%
Setaria faberii; [9]
  observed percentage control of the weed species: 93%
Setaria faberii; [10]
  observed percentage control of the weed species: 84%
Amaranthus retroflexus [4]; metolachlor 31.25 g/ha alone
  percent reduction in plant growth: 46.25%
Amaranthus retroflexus [4]; metolachlor 62.5 g/ha alone
  percent reduction in plant growth: 53.75%
Amaranthus retroflexus [4]; metolachlor 125 g/ha alone
  percent reduction in plant growth: 35%
Amaranthus retroflexus [4]; metolachlor 250 g/ha alone
  percent reduction in plant growth: 85%
Amaranthus retroflexus [4]; metolachlor 500 g/ha alone
  percent reduction in plant growth: 95%
Setaria viridis; metolachlor 2 g/ha alone
  percent reduction in plant growth: 5%
Setaria viridis; metolachlor 4 g/ha alone
  percent reduction in plant growth: 22.5%
Setaria viridis; metolachlor 8 g/ha alone
  percent reduction in plant growth: 38.75%
Setaria viridis; metolachlor 16 g/ha alone
  percent reduction in plant growth: 61.25%
Setaria viridis; metolachlor 32 g/ha alone
  percent reduction in plant growth: 87.5%
Setaria viridis; metolachlor 64 g/ha alone
  percent reduction in plant growth: 98%
Abutilon theophrasti [1]; metolachlor 1000 g/ha alone
  observed percentage control of the weed species: 0%

## COCC(C)N(C(=O)CCl)c1c(C)csc1C (stereo not drawn) [Dimethenamid, 2-chloro-N-(2,4-dimethyl-3-thienyl)-N-(2-methoxy-1-methyl)ethyl-acetamide, reference compound]
Maize (Zea mays); dimethenamid 200 g/ha alone
  percentage phytotoxicity: 0%
Panicum miliaceum; dimethenamid 200 g/ha alone
  percentage phytotoxicity: 27%
Helianthus annuus; dimethenamid 200 g/ha alone
  percentage phytotoxicity: 3%
Abutilon theophrasti [3]; dimethenamid 200 g/ha alone
  percentage phytotoxicity: 12%
Digitaria sanguinalis; dimethenamid 4 g/ha alone
  percent reduction in plant growth: 16.25%
Digitaria sanguinalis; dimethenamid 8 g/ha alone
  percent reduction in plant growth: 15%
Digitaria sanguinalis; dimethenamid 16 g/ha alone
  percent reduction in plant growth: 77.5%
Digitaria sanguinalis; dimethenamid 32 g/ha alone
  percent reduction in plant growth: 89.75%
Digitaria sanguinalis; dimethenamid 64 g/ha alone
  percent reduction in plant growth: 98.25%
Digitaria sanguinalis; dimethenamid 128 g/ha alone
  percent reduction in plant growth: 92.5%
Digitaria sanguinalis; dimethenamid 256 g/ha alone
  percent reduction in plant growth: 98.75%
Echinochloa crus-galli; dimethenamid 4 g/ha alone
  percent reduction in plant growth: 17.5%
Echinochloa crus-galli; dimethenamid 8 g/ha alone
  percent reduction in plant growth: 38.75%
Echinochloa crus-galli; dimethenamid 16 g/ha alone
  percent reduction in plant growth: 81.25%
Echinochloa crus-galli; dimethenamid 32 g/ha alone
  percent reduction in plant growth: 93.5%
Echinochloa crus-galli; dimethenamid 64 g/ha alone
  percent reduction in plant growth: 97.5%
Echinochloa crus-galli; dimethenamid 128 g/ha alone
  percent reduction in plant growth: 100%

## CCOCN(C(=O)CCl)c1c(C)cccc1CC [Acetochlor, 2-chloro-N-ethoxymethyl-6'-ethylacet-o-toluidide, reference compound]
Maize (Zea mays); [11]
  percentage phytotoxicity: 0%
Panicum miliaceum; [11]
  percentage phytotoxicity: 72%
Helianthus annuus; [11]
  percentage phytotoxicity: 10%
Abutilon theophrasti [3]; [11]
  percentage phytotoxicity: 35%
Digitaria sanguinalis; acetochlor 3.75 g/ha alone
  percent reduction in plant growth: 0%
Digitaria sanguinalis; acetochlor 7.5 g/ha alone
  percent reduction in plant growth: 0%
Digitaria sanguinalis; acetochlor 15 g/ha alone
  percent reduction in plant growth: 7.5%
Digitaria sanguinalis; acetochlor 30 g/ha alone
  percent reduction in plant growth: 32.5%
Digitaria sanguinalis; acetochlor 60 g/ha alone
  percent reduction in plant growth: 85%
Digitaria sanguinalis; acetochlor 120 g/ha alone
  percent reduction in plant growth: 100%
Digitaria sanguinalis; acetochlor 240 g/ha alone
  percent reduction in plant growth: 98.75%
Echinochloa crus-galli; acetochlor 3.75 g/ha alone
  percent reduction in plant growth: 12.5%
Echinochloa crus-galli; acetochlor 7.5 g/ha alone
  percent reduction in plant growth: 36.25%
Echinochloa crus-galli; acetochlor 15 g/ha alone
  percent reduction in plant growth: 55%
Echinochloa crus-galli; acetochlor 30 g/ha alone
  percent reduction in plant growth: 88.75%
Echinochloa crus-galli; acetochlor 60 g/ha alone
  percent reduction in plant growth: 98.75%
Echinochloa crus-galli; acetochlor 120 g/ha alone
  percent reduction in plant growth: 98.75%
Echinochloa crus-galli; acetochlor 240 g/ha alone
  percent reduction in plant growth: 100%

## CS(=O)(=O)c1ccc(C(=O)c2cnoc2C2CC2)c(Cl)c1 [Compound C, 4-(2-chloro-4-methylsulphonyl)benzoyl-5-cyclopropylisoxazole]
Abutilon theophrasti [1]; C 50 g/ha alone
  observed percentage control of the weed species: 73%
